Test [1] deals with T1, glycine transporter-2 (GlyT-2) (Homo sapiens, UniProt Q9Y345).
T1 construct: expressed in transfected cells
T1 sequence (Q9Y345 1-797): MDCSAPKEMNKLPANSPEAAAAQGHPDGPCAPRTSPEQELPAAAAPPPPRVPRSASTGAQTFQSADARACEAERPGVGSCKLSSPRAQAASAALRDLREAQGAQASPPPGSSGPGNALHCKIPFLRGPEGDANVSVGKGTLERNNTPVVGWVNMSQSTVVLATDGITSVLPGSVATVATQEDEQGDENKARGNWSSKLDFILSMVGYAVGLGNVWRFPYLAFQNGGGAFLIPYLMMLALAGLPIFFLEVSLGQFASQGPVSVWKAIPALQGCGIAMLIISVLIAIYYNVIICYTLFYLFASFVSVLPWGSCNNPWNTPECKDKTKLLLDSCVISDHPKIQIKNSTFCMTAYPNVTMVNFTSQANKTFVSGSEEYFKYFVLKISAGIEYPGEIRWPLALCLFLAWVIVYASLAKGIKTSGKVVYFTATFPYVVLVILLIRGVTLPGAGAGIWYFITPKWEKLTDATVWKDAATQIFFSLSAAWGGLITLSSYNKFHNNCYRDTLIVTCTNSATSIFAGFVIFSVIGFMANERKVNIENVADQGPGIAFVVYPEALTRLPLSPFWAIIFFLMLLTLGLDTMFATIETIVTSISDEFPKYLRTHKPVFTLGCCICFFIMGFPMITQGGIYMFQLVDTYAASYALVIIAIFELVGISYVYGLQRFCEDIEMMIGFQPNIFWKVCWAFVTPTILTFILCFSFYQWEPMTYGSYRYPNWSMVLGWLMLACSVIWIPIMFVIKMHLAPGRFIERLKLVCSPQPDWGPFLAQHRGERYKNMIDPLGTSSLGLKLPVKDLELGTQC
Kind of test: [14C]glycine uptake assay in HEK-GlyT-2 transfected cells. The test is classed as cell-based. To be noted: HEK-GlyT-2 cells.

For test [2], the target named is T2, glycine transporter-1 (GlyT-1) (Homo sapiens, UniProt P48067).
T2 construct: JAR cells (ATCC#HTB-144), which endogenously express GlyT-1; host or cells: JAR human choriocarcinoma cells
T2 sequence (P48067 1-706): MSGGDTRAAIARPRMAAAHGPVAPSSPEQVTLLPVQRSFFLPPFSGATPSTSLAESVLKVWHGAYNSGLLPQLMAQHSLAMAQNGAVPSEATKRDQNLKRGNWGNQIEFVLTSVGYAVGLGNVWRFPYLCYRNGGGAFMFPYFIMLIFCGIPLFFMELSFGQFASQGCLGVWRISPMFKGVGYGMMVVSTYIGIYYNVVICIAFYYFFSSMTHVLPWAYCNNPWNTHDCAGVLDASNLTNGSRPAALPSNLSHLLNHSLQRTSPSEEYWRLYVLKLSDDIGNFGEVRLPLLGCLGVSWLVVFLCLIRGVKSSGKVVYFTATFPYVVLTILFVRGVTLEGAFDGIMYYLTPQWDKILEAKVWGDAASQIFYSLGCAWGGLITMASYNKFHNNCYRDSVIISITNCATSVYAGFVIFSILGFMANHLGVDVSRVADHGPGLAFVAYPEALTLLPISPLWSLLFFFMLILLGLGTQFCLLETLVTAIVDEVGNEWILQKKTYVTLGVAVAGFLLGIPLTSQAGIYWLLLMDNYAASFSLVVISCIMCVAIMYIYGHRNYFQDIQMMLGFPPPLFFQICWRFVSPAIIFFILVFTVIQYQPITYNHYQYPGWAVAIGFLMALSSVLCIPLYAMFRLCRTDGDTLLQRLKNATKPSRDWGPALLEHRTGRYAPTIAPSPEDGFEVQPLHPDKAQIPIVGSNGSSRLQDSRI
Kind of test: [14C]glycine uptake assay in JAR cells endogenously expressing GlyT-1 (scintillation proximity). As to conditions: JAR cells, [14C]glycine 5 μM, 3 hour incubation; read-out: GlyT-1 IC50. The test is classed as cell-based. The method in brief:
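IC50 comes from a four-parameter fit of nine-point, duplicate curves measuring inhibition of 5 μM [14C]glycine uptake, read by scintillation proximity after 3 h at 37 °C. Cells are human JAR, which express GlyT-1 endogenously, given 10 min compound pre-treatment in pH 7.4 buffer with 5 mM alanine and 0.75% DMSO.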
Background: Scintillation proximity formats need no separation of bound from free tracer.

Structures can show the parent of a compound that is named as a salt.

Usually IC50 stands for the midpoint of a concentration-inhibition curve.

As for `COc1cccc(F)c1C(=O)NCC1(N2CCN(S(=O)(=O)CC3CC3)CC2)CCCCC1` [compound 83, N-((1-(4-(Cyclopropylmethyl-sulfonyl)piperazin-1-yl)cyclohexyl)methyl)-2-fluoro-6-methoxybenzamide Hydrochloride], the IC50 in test [1] is > 75000 nM; in test [2], 57 nM.

Regarding `COc1cc(F)cc(C)c1C(=O)NCC1(N2CCN(S(=O)(=O)c3cn(C)cn3)CC2)CCCC1` [compound 103, 4-Fluoro-2-methoxy-6-methyl-N-((1-(4-(1-methyl-1H-imidazol-4-ylsulfonyl)piperazin-1-yl)cyclopentyl)methyl) benzamide Hydrochloride], the IC50 in test [1] was > 75000 nM; in test [2] it was 45 nM.

For `CCCS(=O)(=O)N1CCN(C2(CNC(=O)c3c(N)cccc3Cl)CCCC2)CC1` [compound 77, 2-Amino-6-chloro-N-((1-(4-(propylsulfonyl)piperazin-1-yl)cyclopentyl)methyl) benzamide Hydrochloride], the figures for the 50% inhibitory concentration (IC50) in test [1] and in test [2] were > 30000 nM and 183 nM, respectively.

Regarding `CCCS(=O)(=O)N1CCN(C2(CNC(=O)c3c(C)cc(F)cc3OC)CCCCC2)CC1` [compound 19, 4-Fluoro-2-methoxy-6-methyl-N-((1-(4-(propyl-sulfonyl)piperazin-1-yl)cyclohexyl)methyl) benzamide Hydrochloride], the half-inhibitory concentration (IC50) was 39000 nM in test [1] and 15 nM in test [2].

As to `O=C(NCC1(N2CCN(S(=O)(=O)c3cn(C(F)F)nn3)CC2)CCC(F)(F)CC1)c1ccc(C(F)(F)F)cc1Cl` [compound 236, 2-Chloro-N-((1-(4-(1-(difluoromethyl)-1H-1,2,3-triazol-4-ylsulfonyl)piperazin-1-yl)-4,4-difluorocyclohexyl)methyl)-4-(trifluoromethyl) benzamide Hydrochloride], the IC50 in test [1] was > 75000 nM; in test [2], 41 nM.

With `CCCS(=O)(=O)N1CCN(C2(CNC(=O)c3c(F)cccc3OC)CCOCC2)CC1` [compound 123, 2-Fluoro-6-methoxy-N-((4-(4-(propyl-sulfonyl)piperazin-1-yl)tetrahydro-2H-pyran-4-yl)methyl)benzamide Hydrochloride], the IC50 was > 75000 nM in test [1] and 418 nM in test [2]. “2-Chloro-N-((4,4-difluoro- 1-(3-(propylsulfonyl)-3,8- diazabicyclo[3.2.1]octan- 8-yl)cyclohexyl)methyl)- 4-(trifluoromethyl) benzamide Hydrochloride [compound 261]”: the IC50 in test [1] is > 75000 nM; in test [2], 311 nM. The like results for `CCCS(=O)(=O)N1CCN(C2(CNC(=O)c3c(C)cc(F)cc3OC)CCOCC2)CC1` [compound 121, 4-Fluoro-2-methoxy-6-methyl-N-((4-(4-(propylsulfonyl)piperazin-1-yl)tetrahydro-2H-pyran-4-yl)methyl)benzamide Hydrochloride] were, in that order, > 45000 nM and 191 nM. As for `Cn1cnc(S(=O)(=O)N2CCN(C3(CNC(=O)c4c(F)cccc4F)CCCCCC3)CC2)c1` [compound 107, 2,6-Difluoro-N-((1-(4-(1-methyl-1H-imidazol-4-ylsulfonyl)piperazin-1-yl)cycloheptyl)methyl) benzamide Hydrochloride], the IC50 in test [1] is > 75000 nM; in test [2] it was 9 nM. For the molecule `CC(C)CS(=O)(=O)N1CCN(C2(CNC(=O)c3c(N)cccc3Cl)CCCCC2)CC1` [compound 92, 2-Amino-6-chloro-N-((1-(4-(isobutylsulfonyl)piperazin-1-yl)cyclohexyl)methyl) benzamide Hydrochloride], the values for the IC50 in test [1] and in test [2] were 54800 nM and 952 nM, respectively. Consider `CCCS(=O)(=O)N1CCN(C2(CNC(=O)c3c(F)cccc3OC)CCCCCC2)CC1` [compound 55, 2-Fluoro-6-methoxy-N-((1-(4-(propylsulfonyl)piperazin-1-yl)cycloheptyl)methyl) benzamide Hydrochloride], for which the figures for the IC50 in test [1] and in test [2] were > 75000 nM and 14 nM, respectively. As to `CCCS(=O)(=O)N1CCN(C2(CNC(=O)Cc3ccc(Cl)cc3)CCCCC2)CC1` [compound 13, 2-(4-Chlorophenyl)-N-((1-(4-(propylsulfonyl)piperazin-1-yl)cyclohexyl)methyl) acetamide Hydrochloride], the IC50 in test [1] was > 75000 nM; in test [2] it was 1270 nM. As to `CCCS(=O)(=O)N1CCN(C2(CNC(=O)c3ccc(C(F)(F)F)cc3Cl)CCC(F)(F)CC2)C(C)C1` (centres unmarked) [compound 257, 2-Chloro-N-((4,4-difluoro-1-(2-methyl-4-(propylsulfonyl)piperazin-1-yl)cyclohexyl)methyl)-4-(trifluoromethyl) benzamide Hydrochloride], the IC50 in test [1] was > 75000 nM; in test [2], 18 nM. With `CCCS(=O)(=O)N1CCN(C2(CNC(=O)c3ccccc3Cl)CCC(F)(F)CC2)CC1` [compound 139, 2-Chloro-N-((4,4-difluoro-1-(4-(propylsulfonyl)piperazin-1-yl)cyclohexyl)methyl) benzamide Hydrochloride], the concentration for half-maximal inhibition (IC50) in test [1] was > 75000 nM; in test [2] it was 54 nM. Consider `CCCS(=O)(=O)N1CCN(C2(CNC(=O)c3ccc(Cl)cc3Cl)CCOCC2)CC1` [compound 118, 2,4-Dichloro-N-((4-(4-(propylsulfonyl)piperazin-1-yl)tetrahydro-2H-pyran-4-yl)methyl)benzamide Hydrochloride], for which, in test [1], the IC50 is > 75000 nM.

For `CCCS(=O)(=O)N1CCN(C2(CNC(=O)c3ccccc3)CCCCC2)CC1` [compound 24, N-((1-(4-(Propylsulfonyl)piperazin-1-yl)cyclohexyl)methyl) benzamide Hydrochloride], in test [1], the IC50 was > 75000 nM. `Cc1cccc(C)c1C(=O)NCC1(N2CCN(S(=O)(=O)c3cn(C)cn3)CC2)CCC(F)(F)CC1` [compound 164, N-((4,4-Difluoro-1-(4-(1-methyl-1H-imidazol-4-ylsulfonyl)piperazin-1-yl)cyclohexyl)methyl)-2,6-dimethylbenzamide Hydrochloride]: the IC50 in test [2] was determined as 4 nM. Regarding `CCCS(=O)(=O)N1CCN(C2(CNC(=O)c3c(C)cccc3F)CCC(F)(F)CC2)CC1` [compound 147, N-((4,4-Difluoro-1-(4-(propylsulfonyl)piperazin-1-yl)cyclohexyl)methyl)-2-fluoro-6-methyl-benzamide Hydrochloride], in test [2], the half-inhibitory concentration (IC50) is 31 nM.

Turning to `CCS(=O)(=O)N1CCN(C2(CNC(=O)c3c(Cl)cc(Cl)cc3Cl)CCC(F)(F)CC2)CC1` [compound 209, 2,4,6-Trichloro-N-((1-(4-(ethylsulfonyl)piperazin-1-yl)-4,4-difluorocyclohexyl)methyl) benzamide Hydrochloride], the concentration for half-maximal inhibition (IC50) in test [2] amounted to 83 nM. With `CCCS(=O)(=O)N1CCN(C2(CNC(=O)c3ccc(Cl)cc3C)CCC(F)(F)CC2)CC1` [compound 153, 4-Chloro-N-((4,4-difluoro-1-(4-(propylsulfonyl)piperazin-1-yl)cyclohexyl)methyl)-2-methylbenzamide Hydrochloride], the IC50 in test [2] amounted to 69 nM.

With `Cc1ccc(C(=O)NCC2(N3CCN(S(=O)(=O)c4cn(C)nn4)CC3)CCC(F)(F)CC2)c(Cl)c1F` [compound 242, 2-Chloro-N-((4,4-difluoro-1-(4-(1-methyl-1H-1,2,3-triazol-4-ylsulfonyl)piperazin-1-yl)cyclohexyl)methyl)-3-fluoro-4-methylbenzamide Hydrochloride], the IC50 in test [2] was determined as 1 nM.
